Test results published in US11952338B2, “Anticonvulsant compounds” (OWEN-BARRY PHARMACEUTICALS INC., priority 2017, dated 2024).

Tests used:
[1] = detection in rat blood after oral or intravenous administration of Example 1; type: in vivo; details: for detection in blood: rats dosed with Example 1 orally or by vein injection, over 24 hours
Procedure: FIG. 7 is a graph showing the detection of the compounds of Example 1 and Example 2 in rat blood after oral or intravenous administration of the compound of Example 1.
FIG. 8 is a graph showing the time it takes for the compound of Example 1 to be converted in vivo to the compound of Example 2.
All rats were dosed with the compound of Example 1 either orally or by vein injection.

[2] = stability in human plasma; type: in vitro ADME; details: human plasma dosed with Example 1
Description: FIG. 9 is a graph showing the stability of the compound of Example 2 in human plasma once converted from the compound of Example 1.

[3] = tested on: isolated rat brain slices; assay: voltage sensitive dye imaging of electrically stimulated brain slices; type: cell-based
Procedure: The compounds described in the above examples display activity in in vitro and in vivo assays that track brain electrical activity. A first assay is conducted using voltage sensitive dye imaging. This is done on isolated rat brain slices kept viable in artificial cerebral spinal fluid (ACSF). Electrically stimulating the slice activates the neural assemblies therein. A voltage sensitive dye, such as, di-4-ANEPPS, is incubated with a brain slice for 1 hour in a suitable solution that enhances the dye penetration into the tissue. The dye reacts to changes in voltage across the cell membrane of the neurons in the brain slice. The example compounds are added to the ACSF at known concentration between 50 and 200 nM. The brain slices are then subjected to an electrical stimulus that activates the neurons in the slice. As the dye reacts to the change in voltage, which can be observed and quantified, the degree to which activation of the brain is dampened by the presence of the example compound is evaluated.

[4] = tested on: rodent model of traumatic brain injury/stress; assay: rodent model of traumatic brain injury/stress; type: in vivo, rat
Description: FIG. 6 is an electrographic record of activity from the amygdala of a rat which has undergone traumatic brain injury and has been stressed (tail pinch). […] After moderate traumatic brain injury under control conditions, stress induces epileptiform activity in the amygdala. This activity is shown on the left in FIG. 6, where a stressor induces increased activity. […] On the right in FIG. 6, it is evident that the compound of Example 1 prevents the induction of this response and is particularly effective in reducing high frequency activity (i.e. >250 Hz) that is considered to be epileptogenic. This electrophysiological response in the control traumatic brain injury rats was accompanied by stage 2 to 3 seizures (Racine scale: av. 2.0±0.5 n=6 rats). These behavioral responses were blocked in the traumatic brain injury rats treated with the compound of Example 1.

[5] = tested on: rodent kindling model of epilepsy (partial complex seizures); assay: amygdala kindling model of epilepsy; type: in vivo, rat; details: 20 mg/kg
Procedure: FIG. 4 is a summary of data showing the prevention, by the compound of Example 1 at a dose of 20 mg/kg, of stage 5 seizures in an animal model of partial complex seizures, using the amygdala kindling model of epilepsy. FIG. 5 is a graph showing that the pre-treatment of rats (20 mg/kg) undergoing the amygdala kindling procedure prevents the development of stage 5 seizures. […] This model produces partial complex seizures that are similar to temporal lobe seizures experienced by humans. […] Therefore, compounds according to the present invention, including preferably the compound of Example 1, may be used in prophylactic treatment or prevention of epileptogenesis.

[6] = tested on: voltage-gated sodium channels; assay: patch clamp electrophysiology on cultured cortical neurons; type: cell-based, rat; details: 100 μM
Procedure: In another assay, the inhibition by the example compounds on the activity of voltage-gated sodium channels is determined using patch clamp electrophysiology. This analysis is done on cultured cortical neurons isolated from rats. […] This was done by assessing the suppression of the voltage gated sodium channel activity 16 ms after a test pulse.
Under control conditions, recovery occurs at a rate of about 13 ms. In the presence of 100 μM of the compound of Example 1, recovery is slowed to a rate of about 26 ms, and recovery is substantially complete after about 50 ms. […] This is a desirable property for antiseizure compounds, as little or no block of normal function occurs, while reducing (epileptic) activity that occurs at high frequency.

| time course of conversion of Example 1 to Example 2 ([1]; rats dosed with 20 mg/kg of Example 1) | SMILES | detection in blood [1] | stability in human plasma [2] | effect on amplitude and duration of the response [3] | suppression of activation of the brain slice activity ([3]; 50 nM) [%] | suppression of activation of the brain slice activity ([3]; 200 nM) [%] | reduction of activity ([3]; 60 pulses/second) [%] | activity at low stimulation frequency ([3]; stimulation frequency of 20 pulses/second) | induction of seizure (epileptiform) activity in the amygdala by stress ([4]; after moderate traumatic brain injury, tail pinch) | behavioral responses (stage 2 to 3 seizures, Racine scale) ([4]; traumatic brain injury rats) | stage 5 seizures ([5]; oral administration) | development of epileptic seizures ([5]; prior prophylactic dosing) | recovery from inactivation [6] [%] | time after which recovery is substantially complete [6] | rate of recovery of sodium channel inactivation ([6]; control about 13 ms) |
| --- | --- | --- | --- | --- | --- | --- | --- | --- | --- | --- | --- | --- | --- | --- | --- |
|  | CC1(C)CC(=O)C=C(c2ccc(C(=O)O)cc2)C1 [Example 2, 3′,3′-Dimethyl-5′-oxo-2′,3′,4′,5′-tetrahydro-[1,1′-biphenyl]-4-carboxylic acid] | the only molecule detected in significant quantities | stable and is not further converted to another molecule |  |  |  |  |  |  |  |  |  |  |  |  |
| substantially complete within one hour | COC(=O)c1ccc(C2=CC(=O)CC(C)(C)C2)cc1 [Example 1, Methyl 3′,3′-dimethyl-5′-oxo-2′,3′,4′,5′-tetrahydro-[1,1′-biphenyl]-4-carboxylate] | only detectable as the free acid |  | reduced both amplitude and duration of the response | 29±5 | 48±5 | 48 | little or no activity | prevents the induction of seizure activity | blocked | prevents stage 5 seizures from occurring | prevents the onset of seizures | 100 | about 50 ms | about 26 ms |
